Experiments:
Format in all cases: in vivo
Corn = assay: Greenhouse test Procedure VII: biocide and antidote in furrow, herbicide POE (Examples 39-42, 48-50, 56-58; Tables 38-41, 47-49, 55-57)
Outline: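 Corn seed was planted in greenhouse pots, with COUNTER 15G insecticide plus antidote granules applied in-furrow (e.g. 1.1 + 0.37 mg a.i./cm, or 227 g/305 m with acetone-applied safeners). About five days later, herbicides in water with 0.25% v/v X-77 were track-sprayed post-emergence at 187 L/ha. Plant response was scored eight days afterward, with two to four replicates.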

RICE = assay: Multi-crop greenhouse test, soil-applied (Examples 65, 66; Tables 64, 65); parameters: inhibition: dose or concentration left out as unconfirmed; conditions: for inhibition / inhibition at 18 g/ha / inhibition at 70 g/ha / inhibition at 280 g/ha: Oryza sativa; for inhibition at 18 g/ha: Herb. No. 1 0.018 Kg/Ha alone; for inhibition at 70 g/ha: Herb. No. 1 0.07 Kg/Ha alone; for inhibition at 280 g/ha: Herb. No. 1 0.28 Kg/Ha alone
Method: (§1) Tests according to this invention in various crops indicate widespread application of the invention. In Examples 62-66 below are described tests with a variety of herbicides contacted with COUNTER® 15G in the presence and absence of MON-7400 (Antidote No. 12); MON-13900 (No. 1); MON-4660 (No. 16) and flurazole (No. 16). Those tests were conducted according to Procedures IV or V described above and illustrated further in other foregoing examples. Plants used in all tests were, for crops (as abbreviated in parentheses); cotton (COTT); soybean (SOBE); CORN, grain sorghum (GRSO); wheat (WHEA) and RICE, and the weeds giant foxtail (GIFT) and velvetleaf (VELE). The data in the tables below represent averages of two replications.
(§2) In this test the crops and weeds were planted 1.3 cm deep in 13.7 cm X 27.7 cm pans containing Dupo silt loam soil. The test safeners were applied in acetone solution and COUNTER 15G as dry granules to soil cover layers and incorporated by shaking in a bag. Treated cover layers were placed on seeded pans which were transferred to greenhouse benches and subirrigated. Herbicide was applied POE six (6) days after PPI initiation and observations of plant injury made ten (10) days later; results are shown in Table 61. The herbicide used in this example was BEACON (No. 8).
(§3) In another test in the several crops and weeds used in this test series, the herbicidal component was MON-12000 (No. 1); the other components were the same. the procedure used in this test was the same as that described in Example 62, modified to use a light overhead irrigation (about 0.32 cm/day) during days 4-7 of the test. Table 64 […]

grain sorghum (GRSO) = assay: as above; parameters: inhibition: dose or concentration left out as unconfirmed; conditions: for inhibition / inhibition at 18 g/ha / inhibition at 70 g/ha / inhibition at 280 g/ha: Sorghum; for inhibition at 18 g/ha: Herb. No. 1 0.018 Kg/Ha alone; for inhibition at 70 g/ha: Herb. No. 1 0.07 Kg/Ha alone; for inhibition at 280 g/ha: Herb. No. 1 0.28 Kg/Ha alone
Method: as §1, §2, §3

[1] = COUNTER 15G + BEACON/co-herbicide combinations, Example 56
[2] = in-furrow antidote, COUNTER 15G + sulfonamide herbicides, Table 41
[3] = Antidote + Biocide No. 1 in furrow, Herbicide No. 1 0.14 Kg/Ha POE, 8 days after POE
[4] = Antidote + Biocide No. 1 in furrow, Herbicide No. 4 0.17 Kg/Ha POE, 8 days after POE
[5] = Antidote + Biocide No. 1 in furrow, Herbicide No. 5 0.07 Kg/Ha POE, 8 days after POE
[6] = Antidote + Biocide No. 1 in furrow, Herbicide No. 6 0.01 Kg/Ha POE
[7] = Antidote + Biocide No. 1 in furrow, Herbicide No. 7 0.56 Kg/Ha POE, 8 days after POE
[8] = Antidote + Biocide No. 1 in furrow, Herbicide No. 9 0.009 Kg/Ha POE
[9] = Antidote + Biocide No. 1 in furrow, Herbicide No. 10 0.002 Kg/Ha POE, 8 days after POE
[10] = Antidote + Biocide No. 1 in furrow, Herbicide No. 15 0.0044 Kg/Ha POE, 8 days after POE
[11] = Antidote + Biocide No. 1 in furrow, Herbicide No. 16 0.01 Kg/Ha POE
[12] = Antidote + Biocide No. 1 in furrow, Herbicide No. 18 0.0044 Kg/Ha POE
[13] = Antidote + Biocide No. 1 in furrow, Herbicide No. 19 0.28 Kg/Ha POE
[14] = Antidote + Biocide No. 1 in furrow, Herbicide No. 21 0.14 Kg/Ha POE
[15] = Antidote + Biocide No. 1 in furrow, Herbicide No. 23 0.0006 Kg/Ha POE
[16] = Table 64, Herb. No. 1 0.018 Kg/Ha + Biocide No. 1 8.96 Kg/Ha + Antidote 4.48 Kg/Ha
[17] = Table 64, Herb. No. 1 0.07 Kg/Ha + Biocide No. 1 8.96 Kg/Ha + Antidote 4.48 Kg/Ha
[18] = Table 64, Herb. No. 1 0.28 Kg/Ha + Biocide No. 1 8.96 Kg/Ha + Antidote 4.48 Kg/Ha
[19] = Table 65, Herb. No. 1 0.018 Kg/Ha + Biocide No. 1 8.96 Kg/Ha + Antidote 4.48 Kg/Ha
[20] = Table 65, Herb. No. 1 0.07 Kg/Ha + Biocide No. 1 8.96 Kg/Ha + Antidote 4.48 Kg/Ha
[21] = Table 65, Herb. No. 1 0.28 Kg/Ha + Biocide No. 1 8.96 Kg/Ha + Antidote 4.48 Kg/Ha
[22] = Table 64, Herb. No. 1 0.018 Kg/Ha + Biocide No. 1 8.96 Kg/Ha
[23] = Table 64, Herb. No. 1 0.07 Kg/Ha + Biocide No. 1 8.96 Kg/Ha
[24] = Table 64, Herb. No. 1 0.28 Kg/Ha + Biocide No. 1 8.96 Kg/Ha
[25] = Table 65, Herb. No. 1 0.018 Kg/Ha + Biocide No. 1 8.96 Kg/Ha
[26] = Table 65, Herb. No. 1 0.07 Kg/Ha + Biocide No. 1 8.96 Kg/Ha
[27] = Table 65, Herb. No. 1 0.28 Kg/Ha + Biocide No. 1 8.96 Kg/Ha

SMILES: O=C(OCc1ccccc1)c1sc(Cl)nc1C(F)(F)F [Antidote No. 7, 5-Thiazolecarboxylic acid, 2-chloro-4-(trifluoromethyl)-, (phenylmethyl) ester]
- corn injury (Corn; [1]): reduced corn injury
- corn injury (Corn; [2]): significantly reduced

SMILES: CC1(C)OC(c2ccco2)CN1C(=O)C(Cl)Cl (centres unmarked) [compound 1]
- % Inhibition Corn (Corn; [3]): 15%
- % Inhibition Corn (Corn; [4]): 10%
- % Inhibition Corn (Corn; [5]): 15%
- % Inhibition Corn (Corn; [6]): 15%
- % Inhibition Corn (Corn; [7]): 10%
- % Inhibition Corn (Corn; [8]): 10%
- % Inhibition Corn (Corn; [9]): 15%
- % Inhibition Corn (Corn; [10]): 10%
- % Inhibition Corn (Corn; [11]): 20%
- % Inhibition Corn (Corn; [12]): 15%
- % Inhibition Corn (Corn; [13]): 20%
- % Inhibition Corn (Corn; [14]): 20%
- % Inhibition Corn (Corn; [15]): 20%
- % Inhibition Corn (Corn; C (COUNTER) + antidote in furrow, C:A Ratio 20, ACCENT 0.56 Kg/Ha POE): 10%
- % Inhibition Corn (Corn; C (COUNTER) + antidote in furrow, C:A Ratio 20, BEACON 0.28 Kg/Ha POE): 5%
- % Inhibition Corn (Corn; C (COUNTER) + antidote in furrow, C:A Ratio 40, ACCENT 0.56 Kg/Ha POE): 10%
- % Inhibition Corn (Corn; C (COUNTER) + antidote in furrow, C:A Ratio 40, BEACON 0.28 Kg/Ha POE): 5%
- % Inhibition Corn (Corn; C (COUNTER) + antidote in furrow, C:A Ratio 80, ACCENT 0.56 Kg/Ha POE): 10%
- % Inhibition Corn (Corn; C (COUNTER) + antidote in furrow, C:A Ratio 80, BEACON 0.28 Kg/Ha POE): 10%
- % Inhibition Corn (Corn; C (COUNTER) + antidote in furrow, C:A Ratio 160, ACCENT 0.56 Kg/Ha POE): 15%
- % Inhibition Corn (Corn; C (COUNTER) + antidote in furrow, C:A Ratio 160, BEACON 0.28 Kg/Ha POE): 15%
- % Inhibition Corn (Corn; Herbicide No. 1 0.14 Kg/Ha POE + Biocide No. 1 in furrow, no antidote, 8 days after POE): 35%
- % Inhibition Corn (Corn; Herbicide No. 1 0.14 Kg/Ha POE alone, 8 days after POE): 0%
- % Corn Inhibition C:A Ratios 5 (Corn; Herbicide No. 8 0.28 Kg/Ha POE + COUNTER 15G 227 g/305 m + antidote in furrow, C:A ratio 5): 3%
- % Corn Inhibition C:A Ratios 10 (Corn; Herbicide No. 8 0.28 Kg/Ha POE + COUNTER 15G 227 g/305 m + antidote in furrow, C:A ratio 10): 3%
- % Corn Inhibition C:A Ratios 20 (Corn; Herbicide No. 8 0.28 Kg/Ha POE + COUNTER 15G 227 g/305 m + antidote in furrow, C:A ratio 20): 0%
- % Corn Inhibition C:A Ratios 40 (Corn; Herbicide No. 8 0.28 Kg/Ha POE + COUNTER 15G 227 g/305 m + antidote in furrow, C:A ratio 40): 0%
- % Corn Inhibition C:A Ratios 80 (Corn; Herbicide No. 8 0.28 Kg/Ha POE + COUNTER 15G 227 g/305 m + antidote in furrow, C:A ratio 80): 3%
- % Corn Inhibition C:A Ratios 160 (Corn; Herbicide No. 8 0.28 Kg/Ha POE + COUNTER 15G 227 g/305 m + antidote in furrow, C:A ratio 160): 13%
- % Inhibition RICE (RICE; [16]): 0%
- % Inhibition RICE (RICE; [17]): 10%
- % Inhibition RICE (RICE; [18]): 25%
- % Inhibition RICE (RICE; [19]): 10%
- % Inhibition RICE (RICE; [20]): 25%
- % Inhibition RICE (RICE; [21]): 95%
- % Inhibition GRSO (grain sorghum (GRSO); [16]): 0%
- % Inhibition GRSO (grain sorghum (GRSO); [17]): 0%
- % Inhibition GRSO (grain sorghum (GRSO); [18]): 0%
- % Inhibition GRSO (grain sorghum (GRSO); [19]): 0%
- % Inhibition GRSO (grain sorghum (GRSO); [20]): 25%
- % Inhibition GRSO (grain sorghum (GRSO); [21]): 65%

SMILES: COC(=O)c1c(Cl)nn(C)c1S(=O)(=O)NC(=O)Nc1nc(OC)cc(OC)n1 [Herbicide No. 1, N-[(4,6-dimethoxypyrimidin-2-yl)aminocarbonyl]-3-chloro-4-methoxycarbonyl-5-sulfonamide, reference compound]
- inhibition (RICE; [22]): 0%
- inhibition at 18 g/ha (RICE; Table 64): 0%
- inhibition (RICE; [23]): 10%
- inhibition at 70 g/ha (RICE; Table 64): 0%
- inhibition (RICE; [24]): 25%
- inhibition at 280 g/ha (RICE; Table 64): 40%
- inhibition (RICE; [25]): 0%
- inhibition at 18 g/ha (RICE; Table 65): 0%
- inhibition (RICE; [26]): 25%
- inhibition at 70 g/ha (RICE; Table 65): 40%
- inhibition (RICE; [27]): 90%
- inhibition at 280 g/ha (RICE; Table 65): 60%
- inhibition (grain sorghum (GRSO); [22]): 0%
- inhibition at 18 g/ha (grain sorghum (GRSO); Table 64): 0%
- inhibition (grain sorghum (GRSO); [23]): 15%
- inhibition at 70 g/ha (grain sorghum (GRSO); Table 64): 0%
- inhibition (grain sorghum (GRSO); [24]): 15%
- inhibition at 280 g/ha (grain sorghum (GRSO); Table 64): 20%
- inhibition (grain sorghum (GRSO); [25]): 15%
- inhibition at 18 g/ha (grain sorghum (GRSO); Table 65): 0%
- inhibition (grain sorghum (GRSO); [26]): 20%
- inhibition at 70 g/ha (grain sorghum (GRSO); Table 65): 40%
- inhibition (grain sorghum (GRSO); [27]): 85%
- inhibition at 280 g/ha (grain sorghum (GRSO); Table 65): 80%

SMILES: N#CCOc1ccc(Cl)c2cccnc12 [compound 33]
- % Inhibition Corn (Corn; [3]): 0%
- % Inhibition Corn (Corn; [4]): 5%
- % Inhibition Corn (Corn; [5]): 30%
- % Inhibition Corn (Corn; [6]): 20%
- % Inhibition Corn (Corn; [7]): 10%
- % Inhibition Corn (Corn; [8]): 5%
- % Inhibition Corn (Corn; [9]): 5%
- % Inhibition Corn (Corn; [10]): 15%
- % Inhibition Corn (Corn; [11]): 30%
- % Inhibition Corn (Corn; [12]): 10%
- % Inhibition Corn (Corn; [13]): 10%
- % Inhibition Corn (Corn; [14]): 20%
- % Inhibition Corn (Corn; [15]): 15%

SMILES: CC1(C)OC(c2ccco2)CN1C(=O)C(Cl)Cl (centres unmarked) [Antidote No. 1, Oxazolidine, 3-(dichloroacetyl)-2,2-dimethyl-5-(2-furanyl)-]
- corn injury (Corn; [1]): reduced corn injury
- safening, comparison (Corn; COUNTER/ACCENT, 160 ratio, Example 50): more effective than MON-7400
- corn injury (Corn; [2]): significantly reduced

SMILES: COC(=O)COC(c1ccccc1)c1ccccc1 [Antidote No. 12, Acetic acid, (diphenylmethoxy)-, methyl ester]
- corn injury (Corn; [1]): reduced corn injury
- safening of corn injury (Corn; COUNTER 15G + sulfonamide herbicides POE, Table 41): 92-100%
- safening effects (Corn; COUNTER 15G in furrow, POE sulfonylurea herbicides, Tables 38, 39): highest and most consistent safening effects
- safener efficacy (Corn; COUNTER + PURSUIT/co-herbicide tank mixtures, Example 58): most efficacious safener
- antidote efficacy (Corn; imidazolinone herbicides + COUNTER 15G, Table 40): most efficacious antidote
- corn injury (Corn; [2]): significantly reduced

Source: patent EP0565593B1, “REDUCING PESTICIDAL INTERACTIONS IN CROPS” (priority 1990, dated 1992)
